Source: patent publication US12257323B2, “Modified wound dressings” (CONVATEC TECHNOLOGIES INC., priority 2016, dated 2025)

Target: T1, MMP-1 (Homo sapiens, UniProt P03956)
T1 sequence (P03956 100-469): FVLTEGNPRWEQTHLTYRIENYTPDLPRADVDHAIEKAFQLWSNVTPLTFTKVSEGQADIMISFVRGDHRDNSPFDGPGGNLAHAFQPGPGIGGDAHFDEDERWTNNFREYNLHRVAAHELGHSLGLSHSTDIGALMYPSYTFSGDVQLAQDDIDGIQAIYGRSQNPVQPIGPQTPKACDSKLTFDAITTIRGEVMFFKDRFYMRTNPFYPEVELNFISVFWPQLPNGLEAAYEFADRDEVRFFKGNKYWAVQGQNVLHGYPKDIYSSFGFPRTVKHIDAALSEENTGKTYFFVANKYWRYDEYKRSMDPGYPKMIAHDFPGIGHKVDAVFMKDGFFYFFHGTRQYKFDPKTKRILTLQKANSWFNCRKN
Test: not given
Conditions: cited from earlier work

Row | Compound | Relative rate MMP-1
1 | Gly-Pro-Gln-Ala#Ile-Ala-Gly-Gln | 600
2 | Gly-Pro-Gln-Gly#Tyr-Ala-Gly-Gln | 50
3 | GIy-Pro-Gln-Gly4Ile-Arg-Gly-Gln | 180
4 | Gly-Pro-Gln-Gly#Ile-Ala-Gly His | 91
5 | Gly-Pro-Gln-Gly#Phe-Ala-Gly-Gln | 20
6 | Gly-Pro-Gln-Gly#Ile-Hyp-Gly-Gln | 7.3
7 | Gly-Pro-Gln-Gly#Ile-Ala-Ala-Gln | 220
8 | Gly-Pro-Gln-Glv#Met-Ala-Gly-Gln | 110
9 | Gly-Pro-Val-Gly#Ile-Ala-Gly-Gln | 32
10 | Gly-Pro-Gln-Leu#Ile-Ala-Gly-Gln | 27
11 | Gly-Pro-Gln-Gly#Trp-Ala-Gly-Gln | <0.5
12 | Gly-Pro-Gln-Gly#Gln-Ala-Gly-Gln | 28
13 | Gly-Pro-Gln-Phe#Ile-Ala-Gly-Gln | 95
14 | Gly-Pro-Gln-Gly#Arg-Ala-Gly-Gln | <0.5

Target: MMP-8 (Homo sapiens, UniProt P22894)
Sequence (P22894 101-467): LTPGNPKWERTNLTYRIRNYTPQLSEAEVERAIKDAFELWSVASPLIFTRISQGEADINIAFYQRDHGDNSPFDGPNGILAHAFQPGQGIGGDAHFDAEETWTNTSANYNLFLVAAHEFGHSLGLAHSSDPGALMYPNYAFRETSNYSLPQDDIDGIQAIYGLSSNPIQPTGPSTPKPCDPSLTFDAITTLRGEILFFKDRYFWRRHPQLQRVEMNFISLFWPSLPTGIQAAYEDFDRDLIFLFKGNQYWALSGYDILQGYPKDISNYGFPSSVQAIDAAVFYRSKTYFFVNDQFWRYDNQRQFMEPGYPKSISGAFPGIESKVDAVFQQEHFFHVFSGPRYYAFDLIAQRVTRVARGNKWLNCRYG
Test: not given
Conditions: cited from earlier work

Row | Compound | Relative rate MMP-8
15 | Gly-Pro-Gln-Ala#Ile-Ala-Gly-Gln | 320
16 | Gly-Pro-Gln-Gly#Tyr-Ala-Gly-Gln | 390
17 | GIy-Pro-Gln-Gly4Ile-Arg-Gly-Gln | 170
18 | Gly-Pro-Gln-Gly#Ile-Ala-Gly His | 145
19 | Gly-Pro-Gln-Gly#Phe-Ala-Gly-Gln | 46
20 | Gly-Pro-Gln-Gly#Ile-Hyp-Gly-Gln | 1.5
21 | Gly-Pro-Gln-Gly#Ile-Ala-Ala-Gln | 120
22 | Gly-Pro-Gln-Glv#Met-Ala-Gly-Gln | 84
23 | Gly-Pro-Val-Gly#Ile-Ala-Gly-Gln | 30
24 | Gly-Pro-Gln-Leu#Ile-Ala-Gly-Gln | 54
25 | Gly-Pro-Gln-Gly#Trp-Ala-Gly-Gln | 49
26 | Gly-Pro-Gln-Gly#Gln-Ala-Gly-Gln | 10
27 | Gly-Pro-Gln-Phe#Ile-Ala-Gly-Gln | 170
28 | Gly-Pro-Gln-Gly#Arg-Ala-Gly-Gln | <0.5

Target: T2, MMP-2 (Homo sapiens, UniProt P08253)
T2 sequence (P08253 110-660): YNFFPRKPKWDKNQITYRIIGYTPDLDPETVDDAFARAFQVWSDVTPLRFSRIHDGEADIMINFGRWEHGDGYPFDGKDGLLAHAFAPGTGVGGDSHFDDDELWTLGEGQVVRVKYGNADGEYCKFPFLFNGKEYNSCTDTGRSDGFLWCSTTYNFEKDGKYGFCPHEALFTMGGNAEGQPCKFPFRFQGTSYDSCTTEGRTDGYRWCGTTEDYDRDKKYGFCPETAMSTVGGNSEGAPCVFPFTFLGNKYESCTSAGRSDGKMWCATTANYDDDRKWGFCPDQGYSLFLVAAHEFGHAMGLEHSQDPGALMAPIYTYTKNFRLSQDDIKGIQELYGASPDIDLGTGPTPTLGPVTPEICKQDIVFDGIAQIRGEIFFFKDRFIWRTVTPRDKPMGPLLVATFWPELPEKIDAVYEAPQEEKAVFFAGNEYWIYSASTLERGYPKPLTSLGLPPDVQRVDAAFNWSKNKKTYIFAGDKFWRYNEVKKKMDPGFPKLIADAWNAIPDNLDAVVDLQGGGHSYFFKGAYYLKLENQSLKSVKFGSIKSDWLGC
Test: not given
Conditions: cited from earlier work

Row | Compound | Relative rate MMP-2
29 | Gly-Pro-Gln-Ala#Ile-Ala-Gly-Gln | 96
30 | Gly-Pro-Gln-Gly#Tyr-Ala-Gly-Gln | 50
31 | GIy-Pro-Gln-Gly4Ile-Arg-Gly-Gln | 180
32 | Gly-Pro-Gln-Gly#Ile-Ala-Gly His | 150
33 | Gly-Pro-Gln-Gly#Phe-Ala-Gly-Gln | 55
34 | Gly-Pro-Gln-Gly#Ile-Hyp-Gly-Gln | 32
35 | Gly-Pro-Gln-Gly#Ile-Ala-Ala-Gln | 180
36 | Gly-Pro-Gln-Glv#Met-Ala-Gly-Gln | 230
37 | Gly-Pro-Val-Gly#Ile-Ala-Gly-Gln | 130
38 | Gly-Pro-Gln-Leu#Ile-Ala-Gly-Gln | 21
39 | Gly-Pro-Gln-Gly#Trp-Ala-Gly-Gln | <5.0
40 | Gly-Pro-Gln-Gly#Gln-Ala-Gly-Gln | 34
41 | Gly-Pro-Gln-Phe#Ile-Ala-Gly-Gln | 15
42 | Gly-Pro-Gln-Gly#Arg-Ala-Gly-Gln | <5.0

Target: MMP-9 (Homo sapiens, UniProt P14780)
Sequence (P14780 94-707): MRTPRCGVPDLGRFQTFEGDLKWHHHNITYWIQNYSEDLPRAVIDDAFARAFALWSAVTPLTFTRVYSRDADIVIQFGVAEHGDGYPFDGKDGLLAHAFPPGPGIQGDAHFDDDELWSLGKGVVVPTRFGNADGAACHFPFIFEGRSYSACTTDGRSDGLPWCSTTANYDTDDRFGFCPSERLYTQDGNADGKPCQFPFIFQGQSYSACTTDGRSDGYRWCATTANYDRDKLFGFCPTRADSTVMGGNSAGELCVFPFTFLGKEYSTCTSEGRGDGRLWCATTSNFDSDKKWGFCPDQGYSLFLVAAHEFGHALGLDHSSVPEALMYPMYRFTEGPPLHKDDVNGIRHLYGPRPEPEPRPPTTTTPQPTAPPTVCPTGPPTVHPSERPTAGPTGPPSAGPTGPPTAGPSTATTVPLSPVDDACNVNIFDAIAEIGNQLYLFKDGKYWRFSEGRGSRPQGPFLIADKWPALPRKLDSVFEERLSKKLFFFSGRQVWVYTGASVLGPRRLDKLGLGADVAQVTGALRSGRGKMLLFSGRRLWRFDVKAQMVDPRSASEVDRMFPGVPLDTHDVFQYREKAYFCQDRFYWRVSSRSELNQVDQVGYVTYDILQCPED
Test: not given
Conditions: cited from earlier work

Row | Compound | Relative rate MMP-9
43 | Gly-Pro-Gln-Ala#Ile-Ala-Gly-Gln | 110
44 | Gly-Pro-Gln-Gly#Tyr-Ala-Gly-Gln | 96
45 | GIy-Pro-Gln-Gly4Ile-Arg-Gly-Gln | 200
46 | Gly-Pro-Gln-Gly#Ile-Ala-Gly His | 120
47 | Gly-Pro-Gln-Gly#Phe-Ala-Gly-Gln | 24
48 | Gly-Pro-Gln-Gly#Ile-Hyp-Gly-Gln | 11
49 | Gly-Pro-Gln-Gly#Ile-Ala-Ala-Gln | 140
50 | Gly-Pro-Gln-Glv#Met-Ala-Gly-Gln | 170
51 | Gly-Pro-Val-Gly#Ile-Ala-Gly-Gln | 110
52 | Gly-Pro-Gln-Leu#Ile-Ala-Gly-Gln | 8.8
53 | Gly-Pro-Gln-Gly#Trp-Ala-Gly-Gln | <5.0
54 | Gly-Pro-Gln-Gly#Gln-Ala-Gly-Gln | 20
55 | Gly-Pro-Gln-Phe#Ile-Ala-Gly-Gln | 26
56 | Gly-Pro-Gln-Gly#Arg-Ala-Gly-Gln | <5.0

Target: MMP-3 (Homo sapiens, UniProt P08254)
Sequence (P08254 100-477): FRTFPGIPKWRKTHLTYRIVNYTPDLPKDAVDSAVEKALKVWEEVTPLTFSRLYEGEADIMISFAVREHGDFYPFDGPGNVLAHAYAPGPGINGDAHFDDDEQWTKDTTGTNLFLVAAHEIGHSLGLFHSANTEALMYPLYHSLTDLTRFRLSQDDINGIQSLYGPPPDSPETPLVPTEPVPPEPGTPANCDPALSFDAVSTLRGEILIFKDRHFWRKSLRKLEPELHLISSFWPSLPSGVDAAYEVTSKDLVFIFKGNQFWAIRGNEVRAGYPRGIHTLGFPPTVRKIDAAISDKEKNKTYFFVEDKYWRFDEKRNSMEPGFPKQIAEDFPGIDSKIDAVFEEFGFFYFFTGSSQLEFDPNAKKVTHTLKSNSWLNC
Test: not given
Conditions: cited from earlier work

Row | Compound | Relative rate MMP-3
57 | Gly-Pro-Gln-Ala#Ile-Ala-Gly-Gln | 300
58 | Gly-Pro-Gln-Gly#Tyr-Ala-Gly-Gln | 150
59 | GIy-Pro-Gln-Gly4Ile-Arg-Gly-Gln | 250
60 | Gly-Pro-Gln-Gly#Ile-Ala-Gly His | 110
61 | Gly-Pro-Gln-Gly#Phe-Ala-Gly-Gln | 140
62 | Gly-Pro-Gln-Gly#Ile-Hyp-Gly-Gln | 42
63 | Gly-Pro-Gln-Gly#Ile-Ala-Ala-Gln | 280
64 | Gly-Pro-Gln-Glv#Met-Ala-Gly-Gln | 60
65 | Gly-Pro-Val-Gly#Ile-Ala-Gly-Gln | 160
66 | Gly-Pro-Gln-Leu#Ile-Ala-Gly-Gln | 170
67 | Gly-Pro-Gln-Gly#Trp-Ala-Gly-Gln | 120
68 | Gly-Pro-Gln-Gly#Gln-Ala-Gly-Gln | 38
69 | Gly-Pro-Gln-Phe#Ile-Ala-Gly-Gln | 68
70 | Gly-Pro-Gln-Gly#Arg-Ala-Gly-Gln | <4.9

Target: T3, MMP-7 (Homo sapiens, UniProt P09237)
T3 sequence (P09237 95-267): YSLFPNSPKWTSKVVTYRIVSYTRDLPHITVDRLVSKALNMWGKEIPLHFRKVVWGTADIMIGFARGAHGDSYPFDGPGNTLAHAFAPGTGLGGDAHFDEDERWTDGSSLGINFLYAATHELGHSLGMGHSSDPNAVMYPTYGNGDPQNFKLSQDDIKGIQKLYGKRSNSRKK
Test: not given
Conditions: cited from earlier work

Row | Compound | Relative rate MMP-7
71 | Gly-Pro-Gln-Ala#Ile-Ala-Gly-Gln | 530
72 | Gly-Pro-Gln-Gly#Tyr-Ala-Gly-Gln | 21
73 | GIy-Pro-Gln-Gly4Ile-Arg-Gly-Gln | 270
74 | Gly-Pro-Gln-Gly#Ile-Ala-Gly His | 87
75 | Gly-Pro-Gln-Gly#Phe-Ala-Gly-Gln | 74
76 | Gly-Pro-Gln-Gly#Ile-Hyp-Gly-Gln | 8.0
77 | Gly-Pro-Gln-Gly#Ile-Ala-Ala-Gln | 300
78 | Gly-Pro-Gln-Glv#Met-Ala-Gly-Gln | 89
79 | Gly-Pro-Val-Gly#Ile-Ala-Gly-Gln | 57
80 | Gly-Pro-Gln-Leu#Ile-Ala-Gly-Gln | 49
81 | Gly-Pro-Gln-Gly#Trp-Ala-Gly-Gln | <5.0
82 | Gly-Pro-Gln-Gly#Gln-Ala-Gly-Gln | <5.0
83 | Gly-Pro-Gln-Phe#Ile-Ala-Gly-Gln | 63
84 | Gly-Pro-Gln-Gly#Arg-Ala-Gly-Gln | <5.0

System: not listed separately
Test: Hydrogel formation in buffer viewed under light microscope
Conditions: pH 4 general lab buffer or pH 9 K2HPO4/MgCl2 buffer (20 μL each)

Row | Hydrogel formation on contact with buffer | Compound
85 | did not form a hydrogel | CN(C)c1ccc(/N=N/c2ccc(S(=O)(=O)NCCCC[C@H](NC(=O)OCC3c4ccccc4-c4ccccc43)C(=O)O)cc2)cc1 [compound 4-c]
